Results as given in ChEMBL document CHEMBL1201862, “PubChem BioAssay data set” (2004).
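Assay format: 96-well plates, 48-hour exposure. At the GI50, growth is halved.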 The source made the active and inactive calls. No stated cut-off is given here; in the data, active = GI50 up to about 1.1 µM and inactive = higher.

Experiments:
Assay in all cases: NCI anticancer screen, dose series, 48 h
DLD-1 = test system: DLD-1
DMS-114 = test system: DMS-114
DMS-273 = test system: DMS-273
LXFL 529 = test system: LXFL 529
M19-MEL = test system: M19-MEL
SNB-78 = test system: SNB-78
XF498 = test system: XF498
HOP-18 = test system: HOP-18
RXF 631 = test system: RXF 631

Measured: GI50

NC(=O)c1cccc([N+](=O)[O-])c1
inactive: DLD-1 > 100 µM | DMS-114 > 100 µM | DMS-273 > 100 µM | LXFL 529 > 100 µM | M19-MEL > 100 µM | SNB-78 > 100 µM | XF498 > 100 µM

CSc1ccc2c(cc1=O)C(NC(=O)c1ccccc1)CCc1cc(O)c(O)c(O)c1-2 (stereo not drawn)
inactive: DLD-1 16.7 µM | DMS-114 26.2 µM | DMS-273 26.9 µM | HOP-18 > 100 µM | LXFL 529 23.4 µM | M19-MEL 4.94 µM | SNB-78 6.79 µM

CC(C)(C)C1CCC(CI)(N=[N+]=[N-])CC1 (stereo not drawn)
inactive: DLD-1 > 100 µM | DMS-114 > 100 µM | DMS-273 > 100 µM | HOP-18 > 100 µM | LXFL 529 > 100 µM | M19-MEL 99.1 µM | SNB-78 > 100 µM | XF498 42.5 µM

COc1cc(/C=C(\C#N)C(=O)c2ccccc2)ccc1O
inactive: LXFL 529 > 100 µM | M19-MEL > 100 µM | SNB-78 > 100 µM | XF498 > 100 µM

COC(=O)C1CC/C(=N/C2c3ccccc3-c3ccccc32)N1 (stereo not drawn)
inactive: DLD-1 > 100 µM | DMS-114 43.8 µM | DMS-273 > 100 µM | HOP-18 > 100 µM | LXFL 529 > 100 µM | M19-MEL > 100 µM | RXF 631 > 100 µM | SNB-78 > 100 µM | XF498 > 100 µM

CCOc1ccc(/C=C(\Cl)c2ccc(OC)c(OC)c2)cc1
inactive: DLD-1 22.5 µM | DMS-114 26.6 µM | DMS-273 22 µM | HOP-18 57.9 µM | LXFL 529 35.9 µM | M19-MEL 37.4 µM | SNB-78 89.5 µM | XF498 > 100 µM

COc1cc2c(cc1OC)C(CC(=O)NN=C(C)C)NCC2 (stereo not drawn)
inactive: DLD-1 > 100 µM | DMS-114 > 100 µM | DMS-273 > 100 µM | HOP-18 > 100 µM | LXFL 529 > 100 µM | M19-MEL > 100 µM | SNB-78 > 100 µM | XF498 96.6 µM

CNC(N)NC
inactive: DLD-1 > 100 µM | DMS-114 > 100 µM | DMS-273 > 100 µM | HOP-18 > 100 µM | LXFL 529 > 100 µM | M19-MEL > 100 µM | SNB-78 > 100 µM | XF498 > 100 µM

Nc1ccccc1C(=O)C(Br)C(Br)c1ccc2c(c1)OCO2 (stereo not drawn)
inactive: DLD-1 33.6 µM | DMS-114 18.2 µM | DMS-273 15.1 µM | HOP-18 16.7 µM | LXFL 529 16.7 µM | M19-MEL 17.8 µM | SNB-78 24.3 µM | XF498 16.7 µM

NS(=O)(=O)OCCCCCCCOS(N)(=O)=O
inactive: DLD-1 495 µM | DMS-114 130 µM | DMS-273 68.7 µM | HOP-18 689 µM | M19-MEL 383 µM | SNB-78 526 µM | XF498 54.8 µM

O=C1OC(c2ccc(Cl)c3ccccc23)c2ccccc21 (stereo not drawn)
inactive: DMS-114 71.3 µM | HOP-18 > 100 µM | M19-MEL > 100 µM | RXF 631 > 100 µM | SNB-78 > 100 µM | XF498 > 100 µM

N#CCCN(CCC#N)c1ccc(/C=C(/NC(=O)c2cc([N+](=O)[O-])ccc2Cl)C(=O)N=[N+]=[N-])cc1
inactive: DLD-1 > 100 µM | DMS-114 > 100 µM | DMS-273 > 100 µM | HOP-18 > 100 µM | LXFL 529 > 100 µM | M19-MEL > 100 µM | RXF 631 > 100 µM | SNB-78 > 100 µM
